Patent US6277583A, “Affinity labeling libraries and applications thereof” (Conjuchem, Inc., priority 1996, dated 2001)

Biological target: T1, HSA (Homo sapiens, UniProt P02768)
T1 construct: purchased Sigma A-8673
Experiment: Rates of reaction (kinetics of biotinylation) of library members with HSA
Format: binding
Protocol: The rates of reaction of four members of the library with HSA were determined, and the kinetics describing the biotinylation of HSA by these members of the library is shown in FIG. 2. The curves all show a characteristic early fast phase of reaction followed by a slowing of the reaction at later times. The maximal rate of reaction is determined by chosing the best straight line fit for the early values of the time course.
Members of the library differ in their structures from that of the thiophenyl ester of biotin in that a pentapeptide with a C- terminus amide is present and the ester function is spatially distinct because its position is on the amino acid side chain of glutamate.

T1 sequence (P02768 25-609): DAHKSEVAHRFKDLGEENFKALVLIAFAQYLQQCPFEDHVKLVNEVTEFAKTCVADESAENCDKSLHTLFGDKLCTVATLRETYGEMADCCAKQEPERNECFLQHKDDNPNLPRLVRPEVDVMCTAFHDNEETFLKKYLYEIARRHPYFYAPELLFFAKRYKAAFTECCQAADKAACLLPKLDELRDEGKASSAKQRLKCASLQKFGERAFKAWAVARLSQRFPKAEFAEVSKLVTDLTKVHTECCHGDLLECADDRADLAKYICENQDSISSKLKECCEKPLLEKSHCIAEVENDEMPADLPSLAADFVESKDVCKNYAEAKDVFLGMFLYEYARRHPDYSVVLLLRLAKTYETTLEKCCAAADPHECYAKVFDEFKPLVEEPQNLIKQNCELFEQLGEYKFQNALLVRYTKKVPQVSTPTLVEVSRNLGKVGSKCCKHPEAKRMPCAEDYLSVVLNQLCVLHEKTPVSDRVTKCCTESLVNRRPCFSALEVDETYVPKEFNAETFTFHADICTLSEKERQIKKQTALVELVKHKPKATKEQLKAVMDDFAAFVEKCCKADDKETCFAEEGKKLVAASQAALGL

`O=C1NC2CSC(CCCCC(=O)Sc3ccccc3)C2N1` (centres unmarked) [Thiophenyl Biotin, thiophenyl ester of biotin] was tested, and the Rate (maximal rate of biotinylation of HSA, best straight line fit of early time course (FIG. 2)) was 0.0004-0.002 OD units/min and the “Fold Increase over 80 μM thiophenyl biotin” value (rate of reaction with HSA relative to thiophenyl ester of biotin) was 1 fold.
